Reference: patent US9650361B2, “N-(pyridin-2-yl)pyrimidin-4-amine derivatives containing a sulfoximine group” (BAYER PHARAM AKTIENGESELLSCHAFT, priority 2012, dated 2017)
Where two headings read alike, the source gives them in different places.

Assays:
HeLa cells = test: Proliferation assay, HeLa (Method 3); type: cell-based, human; details: 4 days, crystal violet, read-out: Inhibition of HeLa cell proliferation IC50
Method: (§1) Cultivated tumour cells (HeLa, human cervical tumour cells, ATCC CCL-2; NCI-H460, human non-small cell lung carcinoma cells, ATCC HTB-177; A2780, human ovarian carcinoma cells, ECACC #93112519; DU 145, hormone-independent human prostate carcinoma cells, ATCC HTB-81; HeLa-MaTu-ADR, multidrug-resistant human cervical carcinoma cells, EPO-GmbH Berlin; Caco-2, human colorectal carcinoma cells, ATCC HTB-37; B16F10, mouse melanoma cells, ATCC CRL-6475) were plated at a density of 5,000 cells/well (DU145, HeLa-MaTu-ADR), 3,000 cells/well (NCI-H460, HeLa), 2,500 cells/well (A2780), 1,500 cells/well (Caco-2), or 1,000 cells/well (B16F10) in a 96-well multititer plate in 200 μL of their respective growth medium supplemented 10% fetal calf serum. After 24 hours, the cells of one plate (zero-point plate) were stained with crystal violet (see below), while the medium of the other plates was replaced by fresh culture medium (200 μl), to which the test substances were added in various concentrations (0 μM, as well as in the range of 0.001-10 μM; the final concentration of the solvent dimethyl sulfoxide was 0.5%). The cells were incubated for 4 days in the presence of test substances. Cell proliferation was determined by staining the cells with crystal violet: the cells were fixed by adding 20 μl/measuring point of an 11% glutaric aldehyde solution for 15 minutes at room temperature. After three washing cycles of the fixed cells with water, the plates were dried at room temperature. The cells were stained by adding 100 μl/measuring point of a 0.1% crystal violet solution (pH 3.0). After three washing cycles of the stained cells with water, the plates were dried at room temperature. The dye was dissolved by adding 100 μl/measuring point of a 10% acetic acid solution. The extinction was determined by photometry at a wavelength of 595 nm. The change of cell number, in percent, was calculated by normalization of the measured values to the extinction values of the zero-point plate (=0%) and the extinction of the untreated (0 μm) cells (=100%). The IC50 values (inhibitory concentration at 50% of maximal effect) were determined by means of a 4 parameter fit.

Caco-2 cells = test: Proliferation assay, Caco-2 (Method 3); type: cell-based, human; details: 4 days, crystal violet, read-out: Inhibition of Caco-2 cell proliferation IC50
Method: as §1

CDK2/CycE = molecular target: T1, CDK2/CycE (Homo sapiens, UniProt P24941); test: CDK2/CycE high ATP kinase assay (Method 2b); type: biochemical; details: 2 mM ATP
T1 construct: GST; purchased ProQinase GmbH (Freiburg, Germany); host or cells: insect cells (Sf9)
Method: 2b. CDK2/CycE High ATP Kinase Assay:
CDK2/CycE-inhibitory activity of compounds of the present invention at 2 mM adenosine-tri-phosphate (ATP) was quantified employing the CDK2/CycE TR-FRET (TR-FRET=Time Resolved Fluorescence Energy Transfer) assay as described in the following paragraphs.
Recombinant fusion proteins of GST and human CDK2 and of GST and human CycE, expressed in insect cells (Sf9) and purified by Glutathion-Sepharose affinity chromatography, were purchase from ProQinase GmbH (Freiburg, Germany) As substrate for the kinase reaction biotinylated peptide biotin-Ttds-YISPLKSPYKISEG (C-terminus in amid form) was used which can be purchased e.g. form the company JERINI peptide technologies (Berlin, Germany).
For the assay 50 nl of a 100 fold concentrated solution of the test compound in DMSO was pipetted into a black low volume 384 well microtiter plate (Greiner Bio-One, Frickenhausen, Germany), 2 μl of a solution of CDK2/CycE in aqueous assay buffer [50 mM Tris/HCl pH 8.0, 10 mM MgCl2, 1.0 mM dithiothreitol, 0.1 mM sodium ortho-vanadate, 0.01% (v/v) Nonidet-P40 (Sigma)] were added and the mixture was incubated for 15 min at 22° C. to allow pre-binding of the test compounds to the enzyme before the start of the kinase reaction. Then the kinase reaction was started by the addition of 3 μl of a solution ATP (3.33 mM=>final conc. in the 5 μl assay volume is 2 mM) and substrate (1.25 μM=>final conc. in the 5 μl assay volume is 0.75 μM) in assay buffer and the resulting mixture was incubated for a reaction time of 25 min at 22° C. The concentration of CDK2/CycE was adjusted depending of the activity of the enzyme lot and was chosen appropriate to have the assay in the linear range, typical concentrations were in the range of 15 ng/ml. The reaction was stopped by the addition of 5 μl of a solution of TR-FRET detection reagents (0.2 μM streptavidine-XL665 [Cisbio Bioassays, Codolet, France] and 1 nM anti-RB(pSer807/pSer811)-antibody from BD Pharmingen [#558389] and 1.2 nM LANCE EU-W1024 labeled anti-mouse IgG antibody [Perkin-Elmer, product no. AD0077, as an alternative a Terbium-cryptate-labeled anti-mouse IgG antibody from Cisbio Bioassays can be used]) in an aqueous EDTA-solution (100 mM EDTA, 0.2% (w/v) bovine serum albumin in 100 mM HEPES/NaOH pH 7.0).
The resulting mixture was incubated 1 h at 22° C. to allow the formation of complex between the phosphorylated biotinylated peptide and the detection reagents. Subsequently the amount of phosphorylated substrate was evaluated by measurement of the resonance energy transfer from the Eu-chelate to the streptavidine-XL. Therefore, the fluorescence emissions at 620 nm and 665 nm after excitation at 350 nm were measured in a TR-FRET reader, e.g. a Rubystar (BMG Labtechnologies, Offenburg, Germany) or a Viewlux (Perkin-Elmer). The ratio of the emissions at 665 nm and at […] was taken as the measure for the amount of phosphorylated substrate. The data were normalised (enzyme reaction without inhibitor=0% inhibition, all other assay components but no enzyme=100% inhibition).

Row | IC50 (HeLa cells; Homo sapiens, HeLa, 96 h) [nM] | IC50 (Caco-2 cells; Homo sapiens, Caco-2, 96 h) [nM] | IC50 (CDK2/CycE) [nM] | IC50 (HeLa cells) [nM] | IC50 (Caco-2 cells) [nM] | SMILES
1 | 477 | 537 | 1510 |  |  | COc1cc(F)ccc1-c1cc(Nc2cc(CS(C)(=N)=O)ccn2)ncn1 (racemic) [Example 1, (rac)-6-(4-Fluoro-2-methoxyphenyl)-N-{4-[(S-methylsulfonimidoyl)methyl]pyridin-2-yl}pyrimidin-4-amine]
2 | 109 | 145 | 1130 |  |  | COc1cc(F)ccc1-c1cc(Nc2cc(CS(C)(=N)=O)cc(Cl)n2)ncn1 (racemic) [Example 4, (rac)-N-{6-Chloro-4-[(S-methylsulfonimidoyl)methyl]pyridin-2-yl}-6-(4-fluoro-2-methoxyphenyl)pyrimidin-4-amine]
3 | 121 | 230 | 3630 |  |  | COc1cc(F)ccc1-c1cc(Nc2cc(CS(C)(=N)=O)cc(C)n2)ncn1 (racemic) [Example 7, (rac)-6-(4-Fluoro-2-methoxyphenyl)-N-{6-methyl-4-[(S-methylsulfonimidoyl)methyl]pyridin-2-yl}pyrimidin-4-amine]
4 | 60 | 116 | 797 |  |  | COc1cc(F)ccc1-c1cc(Nc2cc(CS(C)(=N)=O)cc(C(F)(F)F)n2)ncn1 (racemic) [Example 10, (rac)-6-(4-Fluoro-2-methoxyphenyl)-N-{4-[(S-methylsulfonimidoyl)methyl]-6-(trifluoromethyl)pyridin-2-yl}pyrimidin-4-amine]
5 | 456 |  | 1540 |  |  | COc1cc(F)ccc1-c1cc(Nc2cc(CS(C)(=N)=O)ccn2)ncn1 (single isomer, unassigned) [Example 2, 6-(4-Fluoro-2-methoxyphenyl)-N-{4-[(S-methylsulfonimidoyl)methyl]pyridin-2-yl}pyrimidin-4-amine]
6 |  |  | 1040 | 850 |  | COc1cc(F)ccc1-c1cc(Nc2cc(CS(C)(=N)=O)ccn2)ncn1 (single isomer, unassigned) [Example 3, 6-(4-Fluoro-2-methoxyphenyl)-N-{4-[(S-methylsulfonimidoyl)methyl]pyridin-2-yl}pyrimidin-4-amine]
7 | 104 | 166 | 1420 |  |  | COc1cc(F)ccc1-c1cc(Nc2cc(CS(C)(=N)=O)cc(Cl)n2)ncn1 (single isomer, unassigned) [Example 5, N-{6-Chloro-4-[(S-methylsulfonimidoyl)methyl]pyridin-2-yl}-6-(4-fluoro-2-methoxyphenyl)pyrimidin-4-amine]
8 |  |  | 1820 | 104 | 177 | COc1cc(F)ccc1-c1cc(Nc2cc(CS(C)(=N)=O)cc(Cl)n2)ncn1 (single isomer, unassigned) [Example 6, N-{6-Chloro-4-[(S-methylsulfonimidoyl)methyl]pyridin-2-yl}-6-(4-fluoro-2-methoxyphenyl)pyrimidin-4-amine]
9 |  | 246 | 6330 | 118 |  | COc1cc(F)ccc1-c1cc(Nc2cc(CS(C)(=N)=O)cc(C)n2)ncn1 (single isomer, unassigned) [Example 8, 6-(4-Fluoro-2-methoxyphenyl)-N-{6-methyl-4-[(S-methylsulfonimidoyl)methyl]pyridin-2-yl}pyrimidin-4-amine]
10 |  |  | 4400 | 52 | 212 | COc1cc(F)ccc1-c1cc(Nc2cc(CS(C)(=N)=O)cc(C)n2)ncn1 (single isomer, unassigned) [Example 9, 6-(4-Fluoro-2-methoxyphenyl)-N-{6-methyl-4-[(S-methylsulfonimidoyl)methyl]pyridin-2-yl}pyrimidin-4-amine]
